These results are taken from patent EP0027679B1, “Substituted-5-((7-chloro-4-quinolinyl)amino)-3-(amino-methyl)-(1,1'-biphenyl)-2-ol compounds; processes for their production; and pharmaceutical compositions containing the compounds” (WARNER-LAMBERT COMPANY, priority 1979, dated 1981).

The subject of experiment [1] is chloroquine-pyrimethamine-resistant Vietnam Smith strain of P. Falciparum. As to the kind of experiment: Owl monkey infection with P. falciparum trophozoites, Vietnam Smith strain. In kind it is in vivo, owl monkeys. Conditions: for curative: orally at 2.0 mg/kg/day for a three day period; for cleared the parasitemia: orally at 1.0 mg/kg/day for three days. The procedure:
(§1) Studies were also conducted with infections resulting from inoculations of owl monkeys with trophozoites of the chloroquine-pyrimethamine-resistant Vietnam Smith strain of P. Falciparum; the chloroquine-quinine-resistant, pyrimethamine-susceptible Vietnam Oak Knoll strain of P. Falciparum; or the pyrimethamine-resistant Uganda Palo Alto strain of P. Falciparum. The test method is described in L. H. Schmidt, Trans. R. Soc. Trop. Med Hyg. 67 446 (1973).

The subject of experiment [2] is chloroquine-quinine-resistant, pyrimethamine-susceptible Vietnam Oak Knoll strain of P. Falciparum. As to the kind of experiment: Owl monkey infection with P. falciparum trophozoites, Vietnam Oak Knoll strain. In kind it is in vivo, owl monkeys. Conditions: for activity relative to amodiaquine as curative agents: Oak Knoll strains of the malaria parasite; for curative / cleared the parasitemia: Vietnam Oak Knoll strain; for curative: orally at 2.0 mg/kg/day for a three day period; for activity relative to amodiaquine in clearing parasites: Oak Knoll strain; for cleared the parasitemia: orally at 1.0 mg/kg/day for three days. The procedure:
as §1

The subject of experiment [3] is normal drug-sensitive strain of Plasmodium berghei. As to the kind of experiment: Plasmodium berghei in mice, single subcutaneous dose 72 h post infection, mean survival time and cures. In kind it is in vivo. Conditions: Table I; for MST after single s.c. dose (extension of survival time over the controls): animals not cured, control MST 6.1-6.3 days; for MST after single s.c. dose: animals cured (C): five animal group. The protocol:
Compounds of the invention were tested against a normal drug-sensitive strain of Plasmodium berghei in mice by the parenteral route by a procedure described in J. Med. Chem., 1043 (1967). The compounds were dissolved or suspended in sesame or peanut oil and were administered to mice in a single subcutaneous dose seventy-two hours post infection. Extension of the mean survival time of the treated mice is interpreted as evidence of anti-malarial activity. Compounds are arbitrarily considered to be "active" when they produce at least a 100 percent increase in the mean survival time of treated mice. Animals that survive to sixty days are considered "cured" (termed "C" in Tables I and II). The means survival time (MST) of infected control mice ranges from 6.1-6.3 days while the numbers in parentheses in Tables I and II indicate extension of survival time over the controls as an average for those animals of the five animal group not "cured".

The test system of experiment [4] is pyrimethamine-resistant Uganda Palo Alto strain of P. Falciparum. As to the kind of experiment: Owl monkey infection with P. falciparum trophozoites, Uganda Palo Alto strain. The experiment is classed as in vivo, owl monkeys. Conditions: orally at 1.0 mg/kg/day for three days. The protocol:
as §1

The conditions of experiment [5]: Burckhalter article, Tables VI and XI; cited from earlier work.

`CC(C)(C)NCc1cc(Nc2cc[n+]([O-])c3cc(Cl)ccc23)cc(-c2ccc(Cl)cc2)c1O` [4—Cl, H, NHC(CH3)3, 1, 4'-chloro-5-[(7-chloro-4-quinolinyl)aminoj-3-[[1,1-dimethylethyl)amino]methyl]-[1,1'-biphenyl]-2-ol-1-oxide]: the curative result in experiment [1] was “curative”. In experiment [2], the “activity relative to amodiaquine as curative agents” value is “twenty times the activity of amodiaquine” and the curative result is on record as “curative”.

In the case of `CCN(CC)Cc1cc(Nc2ccnc3cc(Cl)ccc23)ccc1O` [Amodiaquine, reference compound], the figures for the “MST after single s.c. dose (extension of survival time over the controls)” value in experiment [3] (dose 10 (dose unit not given)), in experiment [3] (dose 20 (dose unit not given)) and in experiment [3] (dose 40 (dose unit not given)) were 5.7 days, 8.3 days and 11.9 days, respectively. Further, the “MST after single s.c. dose: animals cured (C)” value (“MST … (C)” below) in experiment [3] (dose 80 (dose unit not given)) stood at 2C; in experiment [3] (dose 160 (dose unit not given)) it was 5C; in experiment [3] (dose 320 (dose unit not given)), 5C; in experiment [3] (dose 640 (dose unit not given)), 5C.

Take `CCN(CC)Cc1cc(Nc2cc[n+]([O-])c3cc(Cl)ccc23)cc(-c2ccc(Cl)cc2)c1O` [Example 1]: the curative result in experiment [1] is “curative”. In addition, in experiment [2], the “activity relative to amodiaquine as curative agents” value is “twenty times the activity of amodiaquine” and the curative entry was “curative”.

With `CCN(CC)Cc1cc(Nc2ccnc3cc(Cl)ccc23)cc(-c2ccc(Cl)cc2)c1O` [Example 2, 4'-chloro-5-[(7-chloro-4-quinolinyl)amino]-3-[(diethylamino)methyl][1,1'-biphenyl]-2-ol], the cleared the parasitemia entry in experiment [4], in experiment [1] and in experiment [2] was “cleared the parasitemia” each time. Also, in experiment [3] (dose 10 (dose unit not given)), the “MST after single s.c. dose (extension of survival time over the controls)” value is on record as 14.2 days. The “MST … (C)” value in experiment [3] (dose 10 (dose unit not given)) was found to be 2C; in experiment [3] (dose 20 (dose unit not given)) it was 3C; in experiment [3] (dose 40 (dose unit not given)), 4C; in experiment [3] (dose 80 (dose unit not given)) it was 5C; in experiment [3] (dose 160 (dose unit not given)) it was 5C; in experiment [3] (dose 320 (dose unit not given)), 5C. Moreover, in experiment [3] (dose 640 (dose unit not given)), the “MST … (C)” value came to 5C. In addition, in experiment [2], the “activity relative to amodiaquine in clearing parasites” value is “twenty times the activity of amodiaquine”.

Regarding `CC(C)(C)NCc1cc(Nc2ccnc3cc(Cl)ccc23)cc(-c2ccc(Cl)cc2)c1O` [Example 3, 4'-chloro-5-[(7-chloro-4-quinolinyl)amino]-3-[[(1,1-dimethylethyl)amino]methyl][1,1'-biphenyl]-2-ol], the cleared the parasitemia entry in experiment [4], in experiment [1] and in experiment [2] was “cleared the parasitemia” in each case. Moreover, in experiment [2], the “activity relative to amodiaquine in clearing parasites” value is “twenty times the activity of amodiaquine”.

Regarding `C=CCc1cc(Nc2ccnc3cc(Cl)ccc23)cc(CN(CC)CC)c1O` [SN-11991], the quinine equivalent in experiment [5] is 10.

As for `CCN(CC)Cc1cc(Nc2ccnc3cc(Cl)ccc23)cc(Cl)c1O` [SN-13729], the quinine equivalent in experiment [5] is 12.
